In patent US20250257075A1, “MACROCYCLIC INHIBITORS OF KRAS FOR THE TREATMENT OF CANCER” (Hoffmann-La Roche Inc., priority 2022, published 2025):

Assays:
SW620 cells (KRAS G12V) = assay: Cell viability assay, G12V; assay type: cell-based, human; conditions: Homo sapiens, SW-620; SW620, 72 hrs, Cell Counting Kit-8
Procedure, shortened: (§1)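 IC50 derived by 4-parameter sigmoidal fit of CCK-8 signal (OD450−OD650, 2 h development) after 72 h compound exposure in 0.5% DMSO. Seeding density was 5,000 cells/well for NCI-H358 and 2,000 cells/well for AGS and SW620, plated overnight before dosing.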

[1] = test system: phosphorylation of ERK, KRAS G12V in SW620; assay: pERK inhibition assay, G12V; assay type: cell-based, human; conditions: Homo sapiens, SW-620; SW620, 4 hours of incubation
Procedure, shortened: (§2)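 NCI-H358 (G12C), AGS (G12D) and SW620 (G12V) cells were seeded overnight at 30,000, 20,000 and 30,000 cells/well, respectively. They were then treated 4 h with compound (0.5% DMSO final), fixed, and methanol-permeabilized. pERK was detected by in-cell ELISA (anti-pERK/HRP, TMB, OD450); IC50 from a 4-parameter sigmoidal fit.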

AGS cells (KRAS G12D) = assay: Cell viability assay, G12D; assay type: cell-based, human; conditions: Homo sapiens, 72 hrs, Cell Counting Kit-8
Procedure, shortened: as §1

[2] = test system: phosphorylation of ERK, KRAS G12C in NCI-H358 cells; assay: pERK inhibition assay, G12C; assay type: cell-based, human; conditions: Homo sapiens; NCI-H358, 4 hours of incubation
Procedure, shortened: as §2

[3] = test system: phosphorylation of ERK, KRAS G12D in AGS cells; assay: pERK inhibition assay, G12D; assay type: cell-based, human; conditions: Homo sapiens, 4 hours of incubation
Procedure, shortened: as §2

[4] = test system: NCI-H358 cells (KRAS G12C); assay: Cell viability assay, G12C; assay type: cell-based, human; conditions: Homo sapiens; NCI-H358, 72 hrs, Cell Counting Kit-8
Procedure, shortened: as §1

KRAS G12C-BRAF complex = molecular target: T1, KRAS G12C-BRAF complex (Homo sapiens, UniProt P01116+P62937, G12C); assay: KRAS-BRAF with CYPA (500 nM) interaction assay (TR-FRET), G12C; assay type: biochemical; conditions: 3 hours
T1 construct: expressed in transfected cells
Procedure, shortened: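 TR-FRET (Ex320 nm, Em 665/615 nm) measured compound- or compound-CYPA-dependent disruption of KRAS-BRAF complex, with CYPA at 500 nM. Disruption scored as decrease in TR-FRET ratio versus DMSO control wells.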

[5] = Single Dose Pharmacokinetics (SDPK) study in female BALB/c mice; assay type: in vivo; conditions: mouse; for clearance: 3 mg/kg, iv; for clearance / AUC(0-t) / Cmax: female BALB/c mice, plasma
Method: The purpose of this study was to determine the pharmacokinetics of selected compounds following single intravenous bolus or oral gavage administration in female BALB/c mice. Briefly, two groups of female BALB/c mice (available from Zhejiang Vital River Laboratory Animal Technology Co., Ltd. or Shanghai Lingchang Biotechnology Co., Ltd) (N=3/group) were treated with a single dose of compound intravenously at 3 mg/kg (IV) or orally at 30 mg/kg (PO). Blood samples were collected at 5 min (only for IV), 15 min, 30 min, 1 h, 2 h, 4 h, 7 h and 24 h post-dose. Blood samples were placed on ice until centrifugation to obtain plasma samples. The concentration of compound in plasma samples was determined using LC-MS/MS method. The pharmacokinetic parameters were calculated by non-compartmental analysis.

T1 sequence (P01116 1-188 isoform P01116-2 G12C): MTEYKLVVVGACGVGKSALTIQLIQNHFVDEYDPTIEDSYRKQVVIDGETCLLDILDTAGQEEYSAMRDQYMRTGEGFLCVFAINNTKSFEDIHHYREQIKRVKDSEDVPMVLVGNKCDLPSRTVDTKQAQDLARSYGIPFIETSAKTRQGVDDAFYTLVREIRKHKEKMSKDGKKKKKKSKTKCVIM
T1 sequence (P62937 whole entry): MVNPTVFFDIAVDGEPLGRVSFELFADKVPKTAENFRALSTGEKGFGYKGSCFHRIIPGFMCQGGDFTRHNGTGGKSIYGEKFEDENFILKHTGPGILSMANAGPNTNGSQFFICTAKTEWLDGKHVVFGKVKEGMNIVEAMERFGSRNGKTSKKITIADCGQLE

IC50 (SW620 cells (KRAS G12V)) [µM] | IC50 [1] [µM] | IC50 (AGS cells (KRAS G12D)) [µM] | IC50 [2] [µM] | IC50 [3] [µM] | IC50 [4] [µM] | IC50 (KRAS G12C-BRAF complex) [µM] | AUC0-last relative to A168 ([5]; 30 mg/kg, po, versus A168) [folds] | Cmax relative to A168 ([5]; 30 mg/kg, po, versus A168) [folds] | clearance [5] [mL/min/kg] | AUC(0-t) ([5]; 30 mg/kg, po) [ng·h/mL] | Cmax ([5]; 30 mg/kg, po) [ng/mL] | Compound
2.18 | 0.009 | 3.57 | 0.007 | 0.378 | 0.003 | 0.099 |  |  |  |  |  | CO[C@@H](C)c1ncc(N2CCN(C)CC2)cc1-c1c2c3cc(c(F)cc3n1CC(F)(F)F)-c1csc(n1)C[C@H](NC(=O)[C@H](C(C)C)N(C)C(=O)[C@H]1C[C@@H](C#CC(F)(F)F)C1)C(=O)N1CCC[C@H](N1)C(=O)OCC(C)(C)C2 (atropisomer, axis not shown; (M)) [Example 3, cis-N-[(1S)-1-[[(7S,13S)-24-fluoro-(20M)-20-[2-[(1S)-1-methoxyethyl]-5-(4-methylpiperazin-1-yl)-3-pyridyl]-17,17-dimethyl-8,14-dioxo-21-(2,2,2-trifluoroethyl)-15-oxa-4-thia-9,21,27,28-tetrazapentacyclo[17.5.2.1^2,5.1^9,13.0^22,26]octacosa-1(25),2,5(28),19,22(26),23-hexaen-7-yl]carbamoyl]-2-methyl-propyl]-N-methyl-3-(3,3,3-trifluoroprop-1-ynyl)cyclobutanecarboxamide]
> 5 | 0.125 | > 5 | 0.005 | > 10 | 0.019 | 0.118 |  |  |  |  |  | CCn1c(-c2cc(N3CCN(CC(F)(F)F)CC3)cnc2[C@H](C)OC)c2c3cc(c(F)cc31)-c1csc(n1)C[C@H](NC(=O)[C@H](C(C)C)N(C)C(=O)[C@H]1C[C@@H](C#CC(F)(F)F)C1)C(=O)N1CCC[C@H](N1)C(=O)OCC(C)(C)C2 (atropisomer, axis not shown; (M)) [Example 8, cis-N-[(1S)-1-[[(7S,13S)-21-ethyl-24-fluoro-(20M)-20-[2-[(1S)-1-methoxyethyl]-5-[4-(2,2,2-trifluoroethyl)piperazin-1-yl]-3-pyridyl]-17,17-dimethyl-8,14-dioxo-15-oxa-4-thia-9,21,27,28-tetrazapentacyclo[17.5.2.1^2,5.1^9,13.0^22,26]octacosa-1(25),2,5(28),19,22(26),23-hexaen-7-yl]carbamoyl]-2-methyl-propyl]-N-methyl-3-(3,3,3-trifluoroprop-1-ynyl)cyclobutanecarboxamide]
1.37 | 0.187 | > 10 | 0.011 | 3.77 | 0.002 | 0.065 | 1.5 | ~2 | 14.2 | 2180 | 1510 | CCn1c(-c2cc(N3CCOCC3)cnc2[C@H](C)OC)c2c3cc(c(F)cc31)-c1csc(n1)C[C@H](NC(=O)[C@H](C(C)C)N(C)C(=O)[C@H]1C[C@@H](C#CC(F)(F)F)C1)C(=O)N1CCC[C@H](N1)C(=O)OCC(C)(C)C2 (atropisomer, axis not shown; (M)) [Example 11, cis-N-[(1S)-1-[[(7S,13S)-21-ethyl-24-fluoro-(20M)-20-[2-[(1S)-1-methoxyethyl]-5-morpholino-3-pyridyl]-17,17-dimethyl-8,14-dioxo-15-oxa-4-thia-9,21,27,28-tetrazapentacyclo[17.5.2.1^2,5.1^9,13.0^22,26]octacosa-1(25),2,5(28),19,22(26),23-hexaen-7-yl]carbamoyl]-2-methyl-propyl]-N-methyl-3-(3,3,3-trifluoroprop-1-ynyl)cyclobutanecarboxamide]
0.121 | 0.176 | 2.19 | 0.053 |  | 0.011 | 0.173 |  |  | 77 | 1580 | 794 | CC#CC(=O)N1CC[C@H](C(=O)N(C)[C@H](C(=O)N[C@H]2Cc3nc(cs3)-c3ccc4c(c3)c(c(-c3cccnc3[C@H](C)OC)n4CC)CC(C)(C)COC(=O)[C@@H]3CCCN(N3)C2=O)C(C)C)C1 [Example A168, reference compound]
